Where two headings read alike, the source gives them in different places. Each block holds one compound with its values, some of them ahead of it.
Tests used:
[1] = tested on: HER3 signal sequence plus 4 amino acids fused to Gaussia Luciferase (HER3-ss+4aa/Gaussia Luciferase); experiment: Dox Induced HER3-ss-Gluc Assay; type: cell-based; settings: 24 hr, doxycycline induced, Flp-In 293 T-REx cells; read-out: 24 hr Dox Inducible Her3(ss + 4) Gluc 293FRT/TO: Mean 1050
How it was run: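 Stable Flp-In 293 T-REx line expressing HER3 signal sequence+4aa/Gaussia luciferase under doxycycline-inducible control. Cells plated the day before; compound dilutions added in doxycycline-containing medium and incubated at 37° C, 5% CO2.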

[2] = In Vitro Microsome Stability Assay (human); type: in vitro ADME
How it was run: (§1)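 Species liver microsomes in potassium phosphate buffer were preincubated at 37 °C for 3–5 min with test compound (added from 0.25 mM DMSO stock), then started with NADPH. Samples at 0 and 30 min were quenched with acetonitrile containing internal standard and analysed by LC-MS/MS; % remaining at 30 min used analyte/IS AUC ratios relative to t=0.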

[3] = In Vitro Microsome Stability Assay (mouse); type: in vitro ADME
How it was run: as §1

[4] = In Vitro Microsome Stability Assay (rat); type: in vitro ADME
How it was run: as §1

[5] = In Vitro Microsome Stability Assay (monkey); type: in vitro ADME
How it was run: as §1

[6] = tested on: target signal sequences plus 10 amino acids fused to Gaussia Luciferase; experiment: Transiently Expressed Dox Induced Signal Sequence-Gluc Assay; type: cell-based; settings: read-out: Signal Sequence-Gluc potency
Experimental: FIp-In 293 T-REx™ cells were transfected with 500 ng pcDNA™5/FRT/TO plasmids inserted with cDNA encoding Gaussia Luciferase fused to the 3′ end of cDNA encoding target signal sequences plus 10 amino acids. Transfected cells were incubated overnight then cells were trypsinized and plated in 384-well tissue culture plates. The next day, compound dilutions in DMSO/media containing doxycycline were added to the wells and incubated at 37° C., 5% CO2.

IL-1β = experiment: Human PBMC Cytokine Assay: IL-1β; type: cell-based; settings: LPS stimulation, 24 hours
Experimental: (§2) Human PBMC were freshly isolated from whole blood collections of 3 normal donors utilizing density gradient centrifugation followed by red blood cell lysis. PBMC from each donor were assayed separately. Cells were suspended in RPMI 1640 media supplemented with 5% fetal bovine serum, 2 mM L-glutamine, 10 mM HEPES, and 1× penicillin/streptomycin. PBMC were seeded at 200,000 cells/well in 96-well round-bottom plates either without stimulation or with stimulation by lipopolysaccharide (LPS, 1 μg/mL) or antibodies against human CD3 (plate-bound, 2 μg/mL) and human CD28 (soluble, 2 μg/mL). Serial dilutions of compound in DMSO/media were simultaneously added and PBMC were incubated at 37° C., 5% CO2 for 24 hours. After 24 hours, plates were centrifuged and half of the supernatant volume removed for cytokine analysis by electrochemiluminescent immunoassay (U-PLEX® Biomarker Multiplex, Meso Scale Discovery). For viability analysis, CellTiter-Glo® (Promega) was added to the remaining material in each well and quantified via luminescent plate reader.

IL-2 = experiment: Human PBMC Cytokine Assay: IL-2; type: cell-based; settings: anti-CD3/CD28 stimulation, 24 hours
Experimental: as §2

IL-6 = experiment: Human PBMC Cytokine Assay: IL-6; type: cell-based; settings: LPS stimulation, 24 hours
Experimental: as §2

[7] = human liver microsomes, 30 min w/ NADPH
[8] = mouse liver microsomes, 30 min w/ NADPH
[9] = rat liver microsomes, 30 min w/ NADPH
[10] = monkey liver microsomes, 30 min w/ NADPH
[11] = Target ADAM10 signal peptide +10 amino acids
[12] = Target B7H3 signal peptide +10 amino acids
[13] = Target CD73 signal peptide +10 amino acids
[14] = Target CD96 signal peptide +10 amino acids
[15] = Target CTLA-4 signal peptide +10 amino acids
[16] = Target EGFR signal peptide +10 amino acids
[17] = Target GP130 signal peptide +10 amino acids
[18] = Target HER3 signal peptide +10 amino acids
[19] = Target IFN-a1 signal peptide +10 amino acids
[20] = Target IFN-a2 signal peptide +10 amino acids
[21] = Target IFN-a4 signal peptide +10 amino acids
[22] = Target IFN-b signal peptide +10 amino acids
[23] = Target IFNAR1 signal peptide +10 amino acids
[24] = Target IFNAR2 signal peptide +10 amino acids
[25] = Target IL-1R1 signal peptide +10 amino acids
[26] = Target IL-1R2 signal peptide +10 amino acids
[27] = Target IL-1Ra (isoform 1) signal peptide +10 amino acids
[28] = Target IL-2Ra (CD25) signal peptide +10 amino acids
[29] = Target IL-6R signal peptide +10 amino acids
[30] = Target IL-6 signal peptide +10 amino acids
[31] = Target IL-7R signal peptide +10 amino acids
[32] = Target IL-12b (p40) signal peptide +10 amino acids
[33] = Target IL-17Ra signal peptide +10 amino acids
[34] = Target IL-17a signal peptide +10 amino acids
[35] = Target IL-23R signal peptide +10 amino acids
[36] = Target IL-23a signal peptide +10 amino acids
[37] = Target LAG3 signal peptide +10 amino acids
[38] = Target PD-L1 signal peptide +10 amino acids
[39] = Target PDGFRa signal peptide +10 amino acids
[40] = Target TACE (ADAM17) signal peptide +10 amino acids
[41] = Target TIGIT signal peptide +10 amino acids
[42] = Target TIM3 signal peptide +10 amino acids
[43] = Target TNFR1 signal peptide +10 amino acids
[44] = Target TNFR2 signal peptide +10 amino acids
[45] = Target VEGF signal peptide +10 amino acids
[46] = Target VGFR2 signal peptide +10 amino acids
[47] = Target VISTA signal peptide +10 amino acids

IC50 [1]: 10.8 nM | Liver Microsome Stability-% Left after 30 min w/ NADPH (%) Human [2, 7]: 48.8% | Liver Microsome Stability-% Left after 30 min w/ NADPH (%) Mouse [3, 8]: 28% | Liver Microsome Stability-% Left after 30 min w/ NADPH (%) Rat [4, 9]: 31.6% | Liver Microsome Stability-% Left after 30 min w/ NADPH (%) Monkey [5, 10]: 14.2% | IC50 [6, 11]: 127 nM | IC50 [6, 12]: 9 nM | IC50 [6, 13]: 44 nM | IC50 [6, 14]: 7 nM | IC50 [6, 15]: 112 nM | IC50 [6, 16]: 47 nM | IC50 [6, 17]: 161 nM | IC50 [6, 18]: 57 nM | IC50 [6, 19]: 57 nM | IC50 [6, 20]: 44 nM | IC50 [6, 21]: 89 nM | IC50 [6, 22]: 288 nM | IC50 [6, 23]: 6 nM | IC50 [6, 24]: 42 nM | IC50 [6, 25]: 282 nM | IC50 [6, 26]: 17 nM | IC50 [6, 27]: 47 nM | IC50 [6, 28]: 55 nM | IC50 [6, 29]: 48 nM | IC50 [6, 30]: 38 nM | IC50 [6, 31]: 16 nM | IC50 [6, 32]: 74 nM | IC50 [6, 33]: 176 nM | IC50 [6, 34]: 216 nM | IC50 [6, 35]: 47 nM | IC50 [6, 36]: 223 nM | IC50 [6, 37]: 48 nM | IC50 [6, 38]: 19 nM | IC50 [6, 39]: 37 nM | IC50 [6, 40]: 40 nM | IC50 [6, 41]: 79 nM | IC50 [6, 42]: 132 nM | IC50 [6, 43]: 152 nM | IC50 [6, 44]: 186 nM | IC50 [6, 45]: 51 nM | IC50 [6, 46]: 213 nM | IC50 [6, 47]: 150 nM | IC50 (IL-1β): > 25000 nM | IC50 (IL-2): 8 nM | IC50 (IL-6): 12 nM
SMILES: COc1cc(F)ccc1N1CCN(S(=O)(=O)N2CCCN(CC3CCCCC3)CCCN(S(=O)(=O)c3ccc(N(C)C)cc3)C[C@H](C)C2)CC1 [A137]

IC50 [1]: 10.9 nM | Liver Microsome Stability-% Left after 30 min w/ NADPH (%) Human [2, 7]: 13.7% | Liver Microsome Stability-% Left after 30 min w/ NADPH (%) Mouse [3, 8]: 11.6% | Liver Microsome Stability-% Left after 30 min w/ NADPH (%) Rat [4, 9]: 14.5% | Liver Microsome Stability-% Left after 30 min w/ NADPH (%) Monkey [5, 10]: 2.8% | IC50 (IL-1β): > 25000 nM | IC50 (IL-2): 10 nM | IC50 (IL-6): 24 nM
SMILES: COc1cc(F)ccc1N1CCN(S(=O)(=O)N2CCCN(CC3CCCCC3)CCCN(S(=O)(=O)c3ccc(N(C)C)cc3)C[C@H](C)C2)C[C@H]1C [A177, 4-{[(3S)-9-(cyclohexylmethyl)-5-{[(3 R)-4-(4-fluoro-2-methoxyphenyl)-3-methylpiperazin-1-yl]sulfonyl}-3-methyl-1,5,9-triazacyclododecan-1-yl]sulfonyl}-N,N-dimethylaniline]

IC50 [1]: 276 nM | Liver Microsome Stability-% Left after 30 min w/ NADPH (%) Human [2, 7]: 4.28% | Liver Microsome Stability-% Left after 30 min w/ NADPH (%) Mouse [3, 8]: 4.55% | Liver Microsome Stability-% Left after 30 min w/ NADPH (%) Rat [4, 9]: 4.2% | Liver Microsome Stability-% Left after 30 min w/ NADPH (%) Monkey [5, 10]: 3.98% | IC50 [6, 11]: 849 nM | IC50 [6, 12]: 201 nM | IC50 [6, 13]: 375 nM | IC50 [6, 14]: 107 nM | IC50 [6, 15]: 1140 nM | IC50 [6, 16]: 412 nM | IC50 [6, 17]: 969 nM | IC50 [6, 18]: 522 nM | IC50 [6, 19]: 820 nM | IC50 [6, 20]: 404 nM | IC50 [6, 21]: 1130 nM | IC50 [6, 22]: 4300 nM | IC50 [6, 23]: 145 nM | IC50 [6, 24]: 778 nM | IC50 [6, 25]: 1470 nM | IC50 [6, 26]: 168 nM | IC50 [6, 27]: 666 nM | IC50 [6, 28]: 876 nM | IC50 [6, 29]: 445 nM | IC50 [6, 30]: 437 nM | IC50 [6, 31]: 392 nM | IC50 [6, 32]: 913 nM | IC50 [6, 33]: 1860 nM | IC50 [6, 34]: 1820 nM | IC50 [6, 35]: 666 nM | IC50 [6, 36]: 1920 nM | IC50 [6, 37]: 464 nM | IC50 [6, 38]: 366 nM | IC50 [6, 39]: 565 nM | IC50 [6, 40]: 391 nM | IC50 [6, 41]: 737 nM | IC50 [6, 42]: 1350 nM | IC50 [6, 43]: 1620 nM | IC50 [6, 44]: 2110 nM | IC50 [6, 45]: 645 nM | IC50 [6, 46]: 2590 nM | IC50 [6, 47]: 911 nM
SMILES: C[C@H]1CN(S(=O)(=O)c2ccc(N(C)C)cc2)CCCN(CC2CCCCC2)CCCN(S(=O)(=O)N2CCc3c(C#N)cccc3C2)C1 [A151, 2-{[(3S)-9-(cyclohexylmethyl)-5-[4-(dimethylamino)benzenesulfonyl]-3-methyl-1,5,9-triazacyclododecan-1-yl]sulfonyl}-1,2,3,4-tetrahydroisoquinoline-5-carbonitrile]

Liver Microsome Stability-% Left after 30 min w/ NADPH (%) Human ([2]; human, 30 min, NADPH): 39.7% | Liver Microsome Stability-% Left after 30 min w/ NADPH (%) Mouse ([3]; mouse, 30 min, NADPH): 49.6% | Liver Microsome Stability-% Left after 30 min w/ NADPH (%) Rat ([4]; rat, 30 min, NADPH): 43.6% | Liver Microsome Stability-% Left after 30 min w/ NADPH (%) Monkey ([5]; monkey, 30 min, NADPH): 32.7% | IC50 [6, 11]: 231 nM | IC50 [6, 12]: 27 nM | IC50 [6, 13]: 58 nM | IC50 [6, 14]: 12 nM | IC50 [6, 15]: 259 nM | IC50 [6, 16]: 60 nM | IC50 [6, 17]: 201 nM | IC50 [6, 18]: 89 nM | IC50 [6, 19]: 128 nM | IC50 [6, 20]: 51 nM | IC50 [6, 21]: 221 nM | IC50 [6, 22]: 818 nM | IC50 [6, 23]: 14 nM | IC50 [6, 24]: 133 nM | IC50 [6, 25]: 374 nM | IC50 [6, 26]: 23 nM | IC50 [6, 27]: 111 nM | IC50 [6, 28]: 159 nM | IC50 [6, 29]: 78 nM | IC50 [6, 30]: 66 nM | IC50 [6, 31]: 58 nM | IC50 [6, 32]: 155 nM | IC50 [6, 33]: 424 nM | IC50 [6, 34]: 447 nM | IC50 [6, 35]: 111 nM | IC50 [6, 36]: 567 nM | IC50 [6, 37]: 75 nM | IC50 [6, 38]: 56 nM | IC50 [6, 39]: 90 nM | IC50 [6, 40]: 66 nM | IC50 [6, 41]: 162 nM | IC50 [6, 42]: 282 nM | IC50 [6, 43]: 307 nM | IC50 [6, 44]: 564 nM | IC50 [6, 45]: 111 nM | IC50 [6, 46]: 684 nM | IC50 [6, 47]: 211 nM | IC50 (IL-1β): > 25000 nM | IC50 (IL-2): 31 nM | IC50 (IL-6): 61 nM
SMILES: C[C@H]1CN(S(=O)(=O)c2ccc(N(C)C)cc2)CCCN(CC2CCCCC2)CCCN(S(=O)(=O)N2CCc3cc(Cl)ccc3C2)C1 [A87]
